Test results as given in ChEMBL document CHEMBL1201862, “PubChem BioAssay data set” (2004).
Active and inactive are the calls of the source.

Experiments:
[1] = tested on: A-375; test: proliferation inhibition in MITF-low A375 cells – cell-based, cherry-pick samples, set 2, counter-screen for MITF modulator project, dose response (AID 540335); type: functional; settings: Homo sapiens
[2] = tested on: A-375; test: MITF: Counter assay: A375 proliferation Measured in Cell-Based System Using Plate Reader - 2084-03_Inhibitor_Dose_DryPowder_Activity. [Related pubchem assays (depositor defined):AID488944]; type: functional; settings: Homo sapiens
[3] = tested on: Vero; test: cells; type: functional; settings: Chlorocebus sabaeus
[4] = target: Cysteine protease ATG4B (Homo sapiens, UniProt Q9Y4P1); type: functional;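 also: Fluorescence-based dose-response confirmation assay measuring inhibition of ATG4B activity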
[5] = target: Phospholipase A2 (Homo sapiens, UniProt P04054); type: functional;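 also: confirmatory dose-response counterscreen on phospholipase A2, testing hits that came from an ultra-high-throughput screen for ATG4B inhibitors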
[6] = target: Prothrombin (Homo sapiens, UniProt P00734); test: Thrombin 1536 HTS Dose Response Confirmation. [Related pubchem assays: 1046 (Thrombin 1536 HTS; hits were confirmed in this assay)]; type: functional
[7] = tested on: Streptococcus sp. 'group A'; test: Streptococcus pyogenes SK(-)GAS viability under kanamycin – luminescence, BacTiterGlo, confirmation, counter-screen for streptokinase expression inhibitor project, dose response (AID 1900); type: functional, organism-based
[8] = tested on: Streptococcus; test: GAS UMAA2166 growth inhibition – luminescence, BacTiterGlo, counter-screen for streptokinase expression inhibitor project, dose response (AID 1915); type: functional, organism-based;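 also: potency for reduction of bacterial viability or growth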
[9] = NIH-3T3 fibroblast cytotoxicity, dose response, cytotoxicity control, cell-based, fluorescence, Alamar Blue, secondary assay (AID 2327); type: functional;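 also: NIH-3T3 mouse fibroblasts cultured with fluconazole at 8 µg/mL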
[10] = fluconazole-exposed Candida albicans growth modulators – fluorescence, retest, confirmation (AID 2467); type: functional, cell-based
[11] = target: ATP-dependent molecular chaperone HSP82 (Candida albicans (strain WO-1) (Yeast), UniProt C4YTQ8); test: steroid-induced GRE reporter decrease in yeast – S. cerevisiae, luminescence, Hsp90 inhibitor project, dose response (AID 2400); type: functional, cell-based;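 also: beta-galactosidase luminescence from glucocorticoid response element reporter as proxy for Hsp90 function; inhibitor potency where signal loss means Hsp90 inhibition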
[12] = target: Serine/threonine-protein phosphatase (Candida dubliniensis (strain CD36 / CBS 7987 / NCPF 3949 / NRRLY-17841) (Yeast), UniProt B9W6M3); test: blockers of CaCl2-induced CDRE-lacZ signaling – S. cerevisiae, luminescence, secondary, dose response (AID 2388); type: functional, cell-based;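 also: yeast reporter cells carrying a calcineurin-responsive lacZ construct stimulated with calcium chloride; luminescent beta-galactosidase reporter signal in whole cells rather than isolated phosphatase activity; potency for inhibition where a drop in reporter signal means calcineurin blockade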
[13] = tested on: INS1; test: INS-1E survival protection against cytokine death – cell-based, luminescence, retest, dose response (AID 449756); type: functional; settings: Rattus norvegicus;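 also: cell death triggered by IL-1 beta plus TNF-alpha plus IFN-gamma mixture; protective hits raise ATP signal compared with cytokine alone wells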
[14] = tested on: Vero; test: cells; type: functional, cell-based; settings: Chlorocebus sabaeus
[15] = viability loss of HMLE_sh_eGFP cells – cell-based, luminescence, counter-screen for HMLE_sh_ECad selective toxicity project, dose response (AID 463074); type: functional, Homo sapiens;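 also: HMLE human mammary epithelial cells expressing control shRNA against eGFP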
[16] = Luminescence Cell-Based Dose Retest to Confirm Inhibitors of Cancer Stem Cells. [Related pubchem assays (depositor defined):AID2717, AID2721]; type: functional; settings: Homo sapiens
[17] = tested on: Vero; test: mammalian cell viability reduction – secondary assay, cytotoxicity control for West Nile virus antiviral project, dose response (AID 1650); type: functional; settings: Chlorocebus sabaeus
[18] = HEK-293T cell viability reduction – luminescence, B-cell screen hits, cytotoxicity control for BCR NF-kB inhibitor project, dose response (AID 489021); type: functional, cell-based;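 also: HEK-293T cells carrying an NF-kB luciferase reporter; cells exposed to compound for about 14 hours before viability readout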
[19] = target: Microphthalmia-associated transcription factor (Homo sapiens, UniProt O75030); test: reducers of TRPM1 reporter luminescence, concentration series – cell-based, SK-MEL-5, cherry-picked, set 3, MITF inhibitor project, dose response (AID 493073); type: functional;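 also: SK-MEL-5 melanoma cells with luciferase driven by the MITF target TRPM1 promoter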
[20] = target: Beta-2 adrenergic receptor (Homo sapiens, UniProt P07550); test: ADRB2 activation measured by internalization – cell-based, FAP fluorogen, flow cytometry, cherry pick 1, dose response (AID 588763); type: functional
[21] = tested on: HeLa; test: ATP-based viability loss in HeLa cells – cell-based, CellTiter-Glo luminescence, cherry-pick samples, cytotoxicity control for MITF activator project, dose response (AID 540259); type: functional; settings: Homo sapiens
[22] = target: Beta-galactosidase (Escherichia coli, UniProt Q8VNN2); test: PubChem AID 485352; type: functional
[23] = target: T1, Type-1 angiotensin II receptor (Homo sapiens, UniProt P30556); test: antagonism of angiotensin II type 1 receptor – cell-based, uHTS hits, selectivity assay for APJ receptor antagonist project, dose response (AID 463214); type: functional;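 also: antagonist potency against angiotensin II stimulated AT1 response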
T1 sequence (P30556 whole entry): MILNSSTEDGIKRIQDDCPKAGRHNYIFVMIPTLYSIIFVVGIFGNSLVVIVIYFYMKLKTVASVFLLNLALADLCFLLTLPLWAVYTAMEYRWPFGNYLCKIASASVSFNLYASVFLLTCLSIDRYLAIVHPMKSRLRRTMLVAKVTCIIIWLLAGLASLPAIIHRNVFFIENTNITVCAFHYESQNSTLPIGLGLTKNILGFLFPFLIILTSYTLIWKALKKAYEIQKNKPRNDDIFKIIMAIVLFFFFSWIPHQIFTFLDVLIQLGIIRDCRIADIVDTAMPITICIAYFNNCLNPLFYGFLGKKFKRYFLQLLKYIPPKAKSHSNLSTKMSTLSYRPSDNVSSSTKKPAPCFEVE

[24] = target: Dual specificity tyrosine-phosphorylation-regulated kinase 1A (Rattus norvegicus, UniProt Q63470); type: biochemical, Homo sapiens
[25] = tested on: Escherichia coli; test: microbe, parasite or virus in culture

Sequence of Serine/threonine-protein phosphatase (B9W6M3 whole entry): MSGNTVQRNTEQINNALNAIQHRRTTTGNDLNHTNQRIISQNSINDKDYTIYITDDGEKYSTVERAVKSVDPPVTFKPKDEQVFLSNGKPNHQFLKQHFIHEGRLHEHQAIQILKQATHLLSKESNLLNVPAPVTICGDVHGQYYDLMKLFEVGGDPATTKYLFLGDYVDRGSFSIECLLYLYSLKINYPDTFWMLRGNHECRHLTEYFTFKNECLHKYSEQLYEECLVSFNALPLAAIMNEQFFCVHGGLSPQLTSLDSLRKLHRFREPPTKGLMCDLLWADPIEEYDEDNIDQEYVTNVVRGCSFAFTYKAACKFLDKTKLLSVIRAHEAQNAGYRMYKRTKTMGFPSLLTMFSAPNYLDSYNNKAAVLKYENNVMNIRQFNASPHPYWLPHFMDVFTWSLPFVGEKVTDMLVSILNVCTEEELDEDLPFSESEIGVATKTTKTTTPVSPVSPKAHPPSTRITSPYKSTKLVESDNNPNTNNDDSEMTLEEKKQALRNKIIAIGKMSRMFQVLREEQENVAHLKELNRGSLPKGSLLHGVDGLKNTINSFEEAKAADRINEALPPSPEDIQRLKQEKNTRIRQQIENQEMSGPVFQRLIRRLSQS
Sequence of Microphthalmia-associated transcription factor (O75030 whole entry): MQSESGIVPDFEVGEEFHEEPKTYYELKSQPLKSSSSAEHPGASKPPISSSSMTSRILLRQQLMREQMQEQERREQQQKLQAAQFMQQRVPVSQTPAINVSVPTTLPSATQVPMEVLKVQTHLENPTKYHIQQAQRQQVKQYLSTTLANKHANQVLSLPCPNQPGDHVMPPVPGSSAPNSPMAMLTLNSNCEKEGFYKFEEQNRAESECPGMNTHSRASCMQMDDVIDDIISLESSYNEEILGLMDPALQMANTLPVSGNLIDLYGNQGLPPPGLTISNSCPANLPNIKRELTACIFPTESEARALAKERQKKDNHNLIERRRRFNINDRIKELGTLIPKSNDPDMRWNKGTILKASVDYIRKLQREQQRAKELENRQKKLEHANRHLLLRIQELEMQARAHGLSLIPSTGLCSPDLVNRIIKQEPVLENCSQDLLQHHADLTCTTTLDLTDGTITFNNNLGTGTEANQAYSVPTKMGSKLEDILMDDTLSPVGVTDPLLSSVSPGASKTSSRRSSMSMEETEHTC
Sequence of Cysteine protease ATG4B (Q9Y4P1 whole entry): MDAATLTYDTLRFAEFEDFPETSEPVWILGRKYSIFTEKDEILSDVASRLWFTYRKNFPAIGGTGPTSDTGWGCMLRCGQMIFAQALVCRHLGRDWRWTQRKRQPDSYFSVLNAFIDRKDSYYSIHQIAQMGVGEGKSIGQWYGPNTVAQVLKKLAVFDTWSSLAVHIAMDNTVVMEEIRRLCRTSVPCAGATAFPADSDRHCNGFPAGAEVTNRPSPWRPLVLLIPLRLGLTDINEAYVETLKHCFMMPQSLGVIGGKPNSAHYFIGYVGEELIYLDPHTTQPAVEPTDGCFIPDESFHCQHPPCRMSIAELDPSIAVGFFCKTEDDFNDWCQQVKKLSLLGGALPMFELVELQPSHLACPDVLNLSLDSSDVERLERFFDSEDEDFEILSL
Sequence of Phospholipase A2 (P04054 whole entry): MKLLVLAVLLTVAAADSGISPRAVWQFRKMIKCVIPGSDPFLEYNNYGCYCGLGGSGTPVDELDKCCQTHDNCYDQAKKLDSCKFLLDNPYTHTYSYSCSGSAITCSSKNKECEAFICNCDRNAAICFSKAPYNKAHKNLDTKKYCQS
Sequence of Beta-galactosidase (Q8VNN2 whole entry): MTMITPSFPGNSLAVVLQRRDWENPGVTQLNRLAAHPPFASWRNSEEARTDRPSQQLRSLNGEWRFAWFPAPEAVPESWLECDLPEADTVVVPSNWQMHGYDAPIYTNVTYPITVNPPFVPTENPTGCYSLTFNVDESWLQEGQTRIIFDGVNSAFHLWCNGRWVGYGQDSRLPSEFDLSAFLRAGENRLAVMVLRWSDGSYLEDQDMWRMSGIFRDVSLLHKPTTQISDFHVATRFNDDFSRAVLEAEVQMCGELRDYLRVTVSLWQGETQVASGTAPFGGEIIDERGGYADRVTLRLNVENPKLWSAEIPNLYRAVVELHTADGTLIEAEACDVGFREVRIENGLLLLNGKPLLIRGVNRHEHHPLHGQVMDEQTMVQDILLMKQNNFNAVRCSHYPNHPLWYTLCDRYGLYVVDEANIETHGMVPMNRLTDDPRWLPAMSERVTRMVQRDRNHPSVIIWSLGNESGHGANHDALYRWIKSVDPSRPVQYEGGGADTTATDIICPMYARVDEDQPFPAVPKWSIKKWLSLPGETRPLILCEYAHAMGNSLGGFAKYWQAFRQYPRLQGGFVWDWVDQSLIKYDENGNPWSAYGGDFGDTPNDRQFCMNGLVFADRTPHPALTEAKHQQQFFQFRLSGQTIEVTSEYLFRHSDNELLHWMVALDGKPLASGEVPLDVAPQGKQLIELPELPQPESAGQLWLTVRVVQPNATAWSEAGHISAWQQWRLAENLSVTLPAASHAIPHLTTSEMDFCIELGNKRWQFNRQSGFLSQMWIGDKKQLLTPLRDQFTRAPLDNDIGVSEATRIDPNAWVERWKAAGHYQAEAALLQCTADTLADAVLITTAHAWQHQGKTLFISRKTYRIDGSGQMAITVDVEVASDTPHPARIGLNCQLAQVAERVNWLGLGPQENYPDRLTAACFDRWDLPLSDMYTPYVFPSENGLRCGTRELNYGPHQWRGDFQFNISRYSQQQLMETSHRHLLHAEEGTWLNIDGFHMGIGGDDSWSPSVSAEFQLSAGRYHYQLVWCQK
Sequence of ATP-dependent molecular chaperone HSP82 (C4YTQ8 whole entry): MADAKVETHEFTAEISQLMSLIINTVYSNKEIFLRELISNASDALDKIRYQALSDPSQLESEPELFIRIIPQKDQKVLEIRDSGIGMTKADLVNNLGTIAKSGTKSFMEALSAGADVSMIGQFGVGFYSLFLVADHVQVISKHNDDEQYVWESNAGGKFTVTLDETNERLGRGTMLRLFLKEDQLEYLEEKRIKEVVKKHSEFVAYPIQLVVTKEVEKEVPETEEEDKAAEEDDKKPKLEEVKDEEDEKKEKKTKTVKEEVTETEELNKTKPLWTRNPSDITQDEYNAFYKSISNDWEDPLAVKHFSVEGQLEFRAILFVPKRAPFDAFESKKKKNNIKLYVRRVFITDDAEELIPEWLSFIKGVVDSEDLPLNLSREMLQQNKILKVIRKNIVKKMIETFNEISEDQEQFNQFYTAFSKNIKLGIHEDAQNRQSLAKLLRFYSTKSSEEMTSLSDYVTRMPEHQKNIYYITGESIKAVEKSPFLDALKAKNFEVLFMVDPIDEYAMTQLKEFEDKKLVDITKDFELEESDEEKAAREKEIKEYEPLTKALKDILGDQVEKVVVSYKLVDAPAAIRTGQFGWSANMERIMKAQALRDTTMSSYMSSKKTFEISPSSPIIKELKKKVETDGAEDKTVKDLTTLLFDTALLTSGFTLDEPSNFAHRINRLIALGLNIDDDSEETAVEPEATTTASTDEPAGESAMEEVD
Sequence of Beta-2 adrenergic receptor (P07550 whole entry): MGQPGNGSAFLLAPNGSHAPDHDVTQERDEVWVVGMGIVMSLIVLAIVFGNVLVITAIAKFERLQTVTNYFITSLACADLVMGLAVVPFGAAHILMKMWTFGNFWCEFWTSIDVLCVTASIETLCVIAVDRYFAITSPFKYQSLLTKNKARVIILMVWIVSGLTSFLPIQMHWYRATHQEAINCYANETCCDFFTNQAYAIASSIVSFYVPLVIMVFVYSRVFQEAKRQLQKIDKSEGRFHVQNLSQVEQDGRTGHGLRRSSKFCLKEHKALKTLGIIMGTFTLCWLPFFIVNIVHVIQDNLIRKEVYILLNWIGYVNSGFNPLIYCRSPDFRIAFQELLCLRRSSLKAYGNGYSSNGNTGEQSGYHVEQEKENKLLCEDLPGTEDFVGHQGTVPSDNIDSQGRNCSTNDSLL

CCN1CCN(CCCNC(=O)c2ccc3c(Cl)c4c(nc3c2)CCCC4)CC1
AC50 [1]: > 11 µM (active)
AC50 [2]: > 11 µM (active)
CC50 [3]: 18.7 µM (active)

O=C(NN=C1CCCCCC1)c1cn(-c2ccccc2)nc1-c1ccccc1
IC50 [4]: 13.8 µM (active)
IC50 [5]: 20.8 µM (inactive)
IC50 [6]: > 50 µM (not active)

COc1ccc(C(=O)NC(=S)NNC(=O)c2ccc(C)cc2)cc1
EC50 [7]: 361 nM (active)
CC50 [3]: > 25 µM (active)
EC50 [8]: 6.72 µM (active)
EC50 [9]: > 150 µM (inactive)
EC50 [10]: 1.12 µM (active)
EC50 [11]: 5.92 µM (active)
EC50 [12]: > 180 µM (inactive)

Cc1nc2ccccn2c1C(=O)/C=C/c1cccc([N+](=O)[O-])c1
AC50 [13]: 8.14 µM (active)
IC50 [14]: 17.2 µM (active)
AC50 [1]: > 35 µM (active)
AC50 [2]: > 35 µM (active)
CC50 [3]: 24 µM (active)
AC50 [15]: 56.9 µM (active)
AC50 [16]: 26.6 µM (active)
CC50 [17]: 5.91 µM (active)
IC50 [18]: > 80 µM (inactive)
AC50 [19]: 6.9 µM (active)

Cc1ccc(NC(=O)C(c2ccc(Cl)cc2)N2CCCCC2)cc1 (stereo not given)
EC50 [20]: 2.99 µM (active)

Cn1c(-c2ncc(F)cc2F)cc2onc(-c3c(F)cccc3Cl)c2c1=O
AC50 [21]: 98 µM (active)

CC(C)NC(=S)N/N=C1\CCCCC1C1CCCCC1 (stereo not given)
EC50 [22]: > 40 µM (inactive)
IC50 [23]: > 40 µM (not active)

Cc1oc2ncnc(N)c2c1C
AC50 [24]: 1.4 µM (active)

Cc1sc(NC(=O)c2ccco2)nc1-c1ccccc1
AC50 [24]: 3.67 µM (active)

COC(=O)Nc1ccc2c(c1)N(C(=O)CCN1CCOCC1)c1ccccc1S2
AC50 [25]: 50.2 µM (active)
